Results from patent US8288549B2, “Glycine B antagonist” (Merz Pharma GmbH & Co. KGaA, priority 2008, dated 2012).

Legend:
[1] = target: T1, glycine binding pocket of the NMDA receptor (Rattus norvegicus, UniProt P35439); experiment: [3H]-MDL-105,519 displacement studies on rat cortical membranes; details: displacement of 2 nM [3H]-MDL-105,519, rat cortical membranes, 4° C., 1 h; read-out: NMDA-MDL 105519-r-CTX - IC50
T1 construct: The cortex is dissected out and processed as described by Parsons, et al; from tissue; host or cells: rat cerebral cortex membranes (male Sprague-Dawley)
Protocol: [^3]MDL-105,519 Displacement Studies
For the evaluation of the binding affinity of the test compounds on the glycine binding pocket of the NMDA receptor, [^3H]-MDL-105,519 (GE Healthcare, Freiburg, Germany) displacement studies are performed using a 96-well plate robotic platform. MDL-105,519 (Baron et al., J Pharmacol Exp Ther 1996, 279(1), 62-68; Baron et al., European Journal of Pharmacology, 1997, 323(2-3), 181-192; Hoffner & Wanner, Neuroscience Letters, 1997, 226(2), 79-82) is a selective, high affinity antagonist at the NMDA receptor glycine site.
Tissue preparation is performed according to Foster & Wong (Br J Pharmacol, 1987, 91, 403-409) with some modifications. Anaesthetised male Sprague-Dawley rats (200-250 g, Janvier, Le Genest-Isle, France) are decapitated and their brains removed rapidly. The cortex is dissected out and processed as described by Parsons, et al. (J Pharmacol Exp Ther, 1997, 283(3), 1264-1275). For isolation of the cell membranes, the cortices are homogenized in 20 volumes of ice-cold 0.32 M sucrose (Sigma-Aldrich, Taufkirchen, Germany) using a glass-Teflon homogenizer. The homogenate is centrifuged at 1000×g for 10 minutes, the pellet is discarded and the supernatant centrifuged at 20,000×g for 20 minutes. The resulting pellet is re-suspended in 20 volumes of distilled water and centrifuged for 20 minutes at 8000×g. The supernatant and the buffy coat are then centrifuged three times (48,000×g for 20 minutes) in the presence of 50 mM Tris-HCl, pH 8.0 (assay buffer). All centrifugation steps are carried out at 4° C. After resuspension in 5 volumes of 50 mM Tris-HCl, pH 7.5, the membrane suspension is frozen rapidly at −80° C. On the day of assay, the membranes are thawed and washed four times by resuspension in 50 mM Tris-HCl, pH 7.5, and centrifugation at 48,000×g for 20 minutes. The final pellet is suspended in assay buffer. The amount of protein in the final membrane preparation is determined according to the method of Lowry, et al. (J. Biological Chemistry, 1951, 193, 256-275) with some modifications (Hartree, Analytical Biochemistry, 1972, 48, 422-427). The final protein concentration used for our studies is 400 μg/ml.
A robotic system designed for binding assays (Tecan Deutschland GmbH, Crailsheim, Germany) is loaded with the membrane solution, solutions for bound control (buffer/DMSO 20%), unlabeled glycine (1 mM) for evaluation of non-specific binding, all compounds to be tested (at 20-fold concentrations), radioligand and respective 96-well plates.
Before performing displacement studies, saturation experiments are performed to determine the equilibrium dissociation constant (Kd) of [^3H]-MDL-105,519, which is a parameter for the affinity of the radioligand to the binding site. The protein/receptor concentration is held constant whereas the amount of specific bound radioligand is determined using increasing concentrations of ligand.
On the basis of the saturation experiments, a final [^3H]-MDL-105,519 concentration of 2 nM is selected. Firstly, the assay plates are loaded with membrane solution and are shaken at 4° C. The mother plates are then prepared by pipetting the compounds (n=4) into assay buffer/20% DMSO to obtain the desired final concentrations. After transferring radioligand into the assay plates, the compounds are added (including the bound and the non-specific binding control). The final DMSO concentration is 1%. The assay plates are incubated and shaken at 4° C. for 1 h, before the mixture is exhausted as rapidly as possible via a vacuum manifold using the Multiscreen HTS glass fibre (type B) filter plates (Millipore, Schwalbach, Germany) under a constant vacuum of 450 mbar. The membranes are washed four times with cold assay buffer (100 μL). […]

[2] = target: T2, NMDA receptor glycine B site (Rattus norvegicus, UniProt P35439); experiment: Whole cell patch-clamp recordings in cultured rat hippocampal neurons (NMDA/D-Serine evoked currents); type: cell-based; details: NMDA (200 μM) and D-Serine (1 μM), holding potential −70 mV, read-out: NMDA-PC-r-HIC-NAM - IC50
T2 construct: Hippocampi are then isolated from the brains of at least 8 embryos after decapitation; endogenous in cells; host or cells: primary cultured hippocampal neurons from E20 Sprague-Dawley rat embryos, 11-15 DIV
Protocol: Antagonistic potencies of the test compounds are functionally evaluated using electrophysiological whole cell patch-clamp recordings and/or fluorometric intracellular Ca^2+-imaging (FLIPR) screens.
Cell preparation is performed as described by Parsons, et al. (Neuropharmacology, 1998, 37(6), 719-727). The female Sprague-Dawley rat is anaesthetised by placing in a saturated CO2-euthanasia chamber under further quiet CO2-influx. Under these conditions the rat loses consciousness after a few seconds and is then sacrificed by cervical dislocation. After opening the abdominal cavity, embryos (E20) are removed and stored in ice cold Ca^2+- and Mg^2+-free Hank's Buffered Salt Solution (pH 7.3), containing 4 g/l glucose (HBSS-CMF). Hippocampi are then isolated from the brains of at least 8 embryos after decapitation, transferred into ice cold HBSS-CMF and washed 3 to 4 times.
Hippocampi are pre-incubated for 8 min with a 0.66% trypsin (Sigma-Aldrich) and 0.1% (20 U/ml) DNAase solution (Sigma-Aldrich) in Ca^2+-free Phosphate Buffered Saline (PBS-CF) and washed 3 times with HBSS-CMF. Cells are then mechanically dissociated by trituration in a PBS-CF solution containing 0.05% (10 U/ml) DNAase and 0.3% of the trypsin inhibitor ovomucoid (all from Sigma-Aldrich). The cells are then centrifuged at 180×g for 10 minutes, and the cell pellet re-suspended in basal Minimum essential medium (MEM, Invitrogen, Karlsruhe, Germany), again carefully triturated to ensure maximal dissociation and finally plated in the flexiPERM inserts (Thermo Fisher Scientific, Langenselbold, Germany) at a density of 15×10^3 cells/cm^2 (0.5 ml/insert) onto poly-DL-ornithine (Sigma) and mouse laminin (Invitrogen) pre-coated plastic petri dishes. After 1 hour the cells become attached to the bottom of the dish and the inserts may be removed. The cells are then nourished with 2 ml MEM supplemented with 5% foetal calf serum (FCS) and 5% horse serum and incubated at 37° C. with 95% air and 5% CO2 at 95% humidity. After 4 days in vitro (DIV) further glial mitosis is inhibited by adding 10 μl of AraC (5 μM endconcentration). The medium is completely exchanged after an additional 2 DIV and again, but only partly (50%), after 8 DIV. The cells are used for electrophysiological recordings after 11-15 DIV.
Cells are visualised using an inverted microscope and selected for patching based upon their position and morphology. Voltage clamp recordings are made in the whole cell configuration of the patch clamp technique at a holding potential of −70 mV with the aid of an EPC-10 amplifier in combination with pipette manipulator. Patch clamp pipettes are pulled from borosilicate glass using a horizontal puller (P-97 Puller, Sutter Instruments, USA) and, when filled with intracellular solution, have resistances of 1-4 MΩ.
Solutions are delivered via a home-made gravity driven very fast perfusion system (<10 ms) including valves to switch flow on and off in combination with a stepper motor-driven double-barreled theta glass application pipette in order to expose cells to either agonist-free or agonist-containing solutions in presence or absence of antagonist.
The intracellular solution used consists of: 120 mM CsCl, 10 mM EGTA, 1 mM MgCl2, 200 μM CaCl2, 10 mM glucose and 22 mM tetraethyl ammonium chloride (TEA-CL). The corresponding extracellular bath solution contains: 140 mM NaCl, 3 mM KCl, 10 mM glucose, 10 mM HEPES, 1.5 mM CaCl2 and 4.5 mM sucrose (all from Sigma-Aldrich) pH 7.3, and is supplemented with 0.3 μM tetrodotoxin (TTX, Tocris, Bristol, U.K.) to block voltage-activated sodium channels and 0.25 μM bicuculline (Sigma-Aldrich) to block GABAA receptors. […]

melting point	IC50 [1] [µM]	IC50 [2] [µM]	Compound
153 to 159 °C	0.41		O=C(O)c1cc2cc(Cl)ccc2nc1N[C@@H](Cc1ccccc1)C(=O)O [Example 1, 2-((S)-1-Carboxy-2-phenyl-ethylamino)-6-chloro-quinoline-3-carboxylic acid]
	2.12	0.93	O=C(O)c1cc2cc(Cl)ccc2nc1NC(Cc1c[nH]c2ccc(F)cc12)C(=O)O (centres unmarked) [Example 25, 2-[1-Carboxy-2-(5-fluoro-1H-indol-3-yl)-ethylamino]-6-chloro-quinoline-3-carboxylic acid]
	1.87	1.03	O=C(O)c1cc2cc(Cl)ccc2nc1N[C@@H](Cc1ccc(O)c([N+](=O)[O-])c1)C(=O)O [Example 41, 2-[(S)-1-Carboxy-2-(4-hydroxy-3-nitro-phenyl)-ethylamino]-6-chloro-quinoline-3-carboxylic acid]
155 to 158 °C (dec.)	4.39		O=C(O)c1cc2cc(Cl)ccc2nc1N[C@@H](Cc1ccncc1)C(=O)O [Example 55, 2-((S)-1-Carboxy-2-pyridin-4-yl-ethylamino)-6-chloro-quinoline-3-carboxylic acid]
115 to 117 °C	1.73	1.24	O=C(O)c1cc2cc(Br)cc(Br)c2nc1NC(Cc1ccccc1)C(=O)O (centres unmarked) [Example 56, 6,8-Dibromo-2-(1-carboxy-2-phenyl-ethylamino)-quinoline-3-carboxylic acid]
> 145 °C (dec.)	2.29		Cc1cc(Cl)cc2cc(C(=O)O)c(NC(Cc3ccccc3)C(=O)O)nc12 (centres unmarked) [Example 95, 2-(1-Carboxy-2-phenyl-ethylamino)-6-chloro-8-methylquinoline-3-carboxylic acid]
> 160 °C (dec.)	2.49		Cc1cc(Cl)cc2cc(C(=O)O)c(NC(Cc3c[nH]c4ccccc34)C(=O)O)nc12 (centres unmarked) [Example 97, 2-[1-Carboxy-2-(1H-indol-3-yl)-ethylamino]-6-chloro-8-methylquinoline-3-carboxylic acid]
> 200 °C (dec.)	0.7		O=C(O)c1cc2cc(Cl)ccc2nc1NC(Cc1ccc(Nc2ccnc3ccccc23)cc1)C(=O)O (centres unmarked) [Example 104, 2-{1-Carboxy-2-[4-(quinolin-4-ylamino)-phenyl]-ethylamino}-6-chloro-quinoline-3-carboxylic acid]
	1.03		O=C(O)c1cc2cc(Cl)cc(Cl)c2nc1N[C@@H](Cc1c[nH]c2ccccc12)C(=O)O [Example 155, 2-[(S)-1-Carboxy-2-(1H-indol-3-yl)-ethylamino]-6,8-dichloro-quinoline-3-carboxylic acid]
> 250 °C (dec.)	1.91		O=C(O)c1cc2cc(Cl)ccc2nc1N[C@@H](Cc1cccs1)C(=O)O [Example 156, 2-((S)-1-Carboxy-2-thiophen-2-yl-ethylamino)-6-chloro-quinoline-3-carboxylic acid]
